Laboratory results as given in US4177350A, “Imidazole ethyl oxyalkoxy derivatives and thio analogues thereof” (Siegfried Aktiengesellschaft, priority 1977, dated 1979).
In brackets after ≈: the same amount, converted by molar mass.

Experiments:
Aspergillus niger = assay: minimum inhibitory concentration, gradient plate method, Aspergillus niger; format: cell-based; parameters: key to partial resistancy, Fungi, Asp: partial resistancy observed; conditions: for MIC: 72 h, gradient 0-100 μg/ml, 10% aqueous dimethyl formamide, evaluated three days after inoculation, read-out: Minimum Inhibitory Concentration, Fungi, Asp
Description: (§1) Test evaluation was made three days after inoculation.

Streptococcus faecalis = assay: minimum inhibitory concentration, gradient plate method, Streptococcus faecalis; format: cell-based; parameters: key to partial resistancy, Bacteria, Str: partial resistancy observed; conditions: for MIC: Enterococcus faecalis, 72 h, gradient 0-100 μg/ml, 10% aqueous dimethyl formamide, evaluated three days after inoculation, read-out: Minimum Inhibitory Concentration, Bacteria, Str
Description: as §1

mice = conditions: oral, value as reported by Thienpont et al, Arzneimittelforschung 1975, 25, 224; cited from earlier work
[1] = test system: Staphylococcus aureus haemolyticus; assay: minimum inhibitory concentration, gradient plate method, Staphylococcus aureus haemolyticus; format: cell-based; parameters: key to partial resistancy, Bacteria, St: partial resistancy observed; conditions: for MIC: 72 h, gradient 0-100 μg/ml, 10% aqueous dimethyl formamide, evaluated three days after inoculation, read-out: Minimum Inhibitory Concentration, Bacteria, St
Description: as §1

[2] = test system: Trichophyton mentagrophytes; assay: minimum inhibitory concentration, gradient plate method, Trichophyton mentagrophytes; format: cell-based; conditions: 72 h, gradient 0-100 μg/ml, 10% aqueous dimethyl formamide, evaluated three days after inoculation, read-out: Minimum Inhibitory Concentration, Fungi, Tri
Description: as §1

in vivo = conditions: mouse, po
Description: (§2) The results of these tests are summarized in the following Table I together with the oral toxicity values (LD50 per os; mice, values in mg per kg of body weight) determined in the conventional manner.

[3] = oral toxicity LD50 per os, mice; conditions: mouse, in vivo
Description: as §2

Row | SMILES | MIC (Aspergillus niger) [µg/mL] | MIC (Streptococcus faecalis) [µg/mL] | Toxicity LD50 per os (mice) [mg/kg] | MIC [1] [µg/mL] | MIC [2] [µg/mL] | LD50 (in vivo) [mg/kg] | partial resistancy, Fungi, Asp (Aspergillus niger) | partial resistancy, Bacteria, St [1] | LD50 [3] [mg/kg] | partial resistancy, Bacteria, Str (Streptococcus faecalis)
1 | Clc1ccc(COC(Cn2ccnc2)c2ccc(Cl)cc2Cl)cc1 (stereo not shown) [ECONAZOLE, reference compound] | < 10 | < 10 | 462.7 | < 10 | < 10 |  |  |  |  | 
2 | CSCOC(Cn1ccnc1)c1ccc(Cl)cc1Cl (stereo not drawn) [Example 10, 1-β-(methylthiomethoxy-2,4-dichlorophenethyl)-imidazole nitrate] | < 10 | 30 |  | 20 | < 10 | ~950 |  |  |  | 
3 | Clc1ccc(C(Cn2ccnc2)OCSc2ccccc2)c(Cl)c1 (stereo not drawn) [Example 11, 1-β-(phenylthiomethoxy-2,4-dichlorophenethyl)-imidazole nitrate] | < 10 | 20 |  | < 10 | < 10 | > 3000 |  |  |  | 
4 | Clc1ccc(C(Cn2ccnc2)OCSc2ccc(Br)cc2)c(Cl)c1 (stereo not drawn) [Example 12, 1-β-(4-bromophenylthiomethoxy-2,4-dichlorophenethyl)-imidazole nitrate] | < 10 | 10 |  | < 10 | < 10 | 12500 |  |  |  | 
5 | Clc1ccc(SCOC(Cn2ccnc2)c2ccc(Cl)cc2Cl)cc1 (stereo not drawn) [Example 13, 1-β-(4-chlorophenylthiomethoxy-2,4-dichlorophenethyl)-imidazole nitrate] | < 10 | 10 |  | 10 | < 10 | 3850 |  |  |  | 
6 | Cc1ccc(SCOC(Cn2ccnc2)c2ccc(Cl)cc2Cl)cc1 (stereo not drawn) [Example 14, 1-β-(4-methylphenylthiomethoxy-2,4-dichlorophenethyl)-imidazole nitrate] | < 10 | < 10 |  | < 10 | < 10 | > 3000 |  |  |  | 
7 | Clc1ccc(C(Cn2ccnc2)OCSc2ccc(Cl)c(Cl)c2)c(Cl)c1 (stereo not drawn) [Example 15, 1-β-(3,4-dichlorophenylthiomethoxy-2,4-dichlorophenethyl)-imidazole nitrate] |  | < 10 |  | < 10 | < 10 | ~7500 | r |  |  | 
8 | Cc1cc(SCOC(Cn2ccnc2)c2ccc(Cl)cc2Cl)ccc1Br (stereo not drawn) [Example 16, 1-β-(4-bromo-3-methylphenylthiomethoxy-2,4-dichlorophenethyl)-imidazole nitrate] | < 10 | 10 |  | < 10 | < 10 | > 3000 |  |  |  | 
9 | Clc1ccc(OCCOCCOC(Cn2ccnc2)c2ccc(Cl)cc2Cl)cc1 (stereo not drawn) [Example 17, 1-{β-[2-(p-chlorophenoxyethoxy)-ethoxy-2,4-dichlorophenethyl]}-imidazole nitrate] | 10 | 10 |  | < 10 | < 10 | 2500 |  |  |  | 
10 | CSCOC(Cn1ccnc1)c1ccc(Cc2ccc(Cl)cc2)cc1 (stereo not drawn) [Example 19, 1-[β-methylthiomethoxy-4-(4'-chlorobenzyl)-phenethyl]-imidazole nitrate] | 10 | 25 |  | 10 | < 10 | 970 |  |  |  | 
11 | Clc1ccc(C(Cn2ccnc2)OCCCOc2ccccc2)c(Cl)c1 (stereo not drawn) [Example 20, 1-β-(3-phenoxypropyloxy-2,4-dichlorophenethyl)-imidazole methane sulfonate] | < 10 | < 10 |  | < 10 | < 10 | ~2400 |  |  |  | 
12 | Clc1ccc(C(Cn2ccnc2)OCSC2CCCCC2)c(Cl)c1 (stereo not drawn) [Example 22, 1-[β-(cyclohexylthiomethoxy-2,4-dichlorophenethyl)]-imidazole nitrate] | < 10 | < 10 |  | < 10 | < 10 | > 3000 |  |  |  | 
13 | CC(C(OCSc1ccc(Cl)cc1)c1ccc(Cl)cc1Cl)n1ccnc1 (stereo not drawn) [Example 25, 1-[β-(p-chlorophenylthiomethoxy)-2,4-dichlorophenethyl-α-methyl]-imidazole nitrate] |  | < 10 |  | < 10 | < 10 | > 10000 | r |  |  | 
14 | Clc1ccc(SCOC(Cn2ccnc2)c2ccc(Cl)cc2Cl)nc1 (stereo not drawn) [Example 26, 1-β[(5'-chloropyridyl-2'-thiomethoxy)-2,4-dichlorophenethyl)]-imidazole nitrate] | < 10 | 20 |  | 10 | < 10 | ~2700 |  |  |  | 
15 | Clc1ccc(C(Cn2ccnc2)OCCOc2ccccc2)c(Cl)c1 (stereo not drawn) [Example 27, 1-β-(phenoxyethoxy-2,4-dichlorophenethyl)-imidazole nitrate] | < 10 | 30 |  |  | < 10 | ~800 |  | r |  | 
16 | Clc1ccc(OCCOC(Cn2ccnc2)c2ccc(Cl)cc2Cl)cc1 (stereo not drawn) [Example 28, 1-[β-(p-chlorophenoxyethoxy)-2,4-dichlorophenethyl)]-imidazole nitrate] | < 10 | 10 |  | < 10 | < 10 | > 3000 |  |  |  | 
17 | Clc1ccc(OCCCOC(Cn2ccnc2)c2ccc(Cl)cc2Cl)cc1 (stereo not drawn) [Example 30, 1-{β-[3-(p-chlorophenoxy)-propoxy-2,4-dichlorophenethyl]}-imidazole nitrate] | < 10 | < 10 |  | < 10 | < 10 | > 4000 |  |  |  | 
18 | Clc1ccc(SCCCOC(Cn2ccnc2)c2ccc(Cl)cc2Cl)cc1.O=[N+]([O-])O (stereo not drawn) [Example 31, 1-{β-[3-(p-chlorophenylthio)-propoxy]-2,4-dichlorophenethyl}-imidazole nitrate] | < 10 | < 10 |  | < 10 | < 10 |  |  |  | 4300 | 
19 | Clc1ccc(C(Cn2ccnc2)SCCCOc2ccccc2)c(Cl)c1 (stereo not drawn) [Example 32, 1-[β-(phenoxypropylthio)-2,4-dichlorophenethyl]-imidazole] | < 10 |  |  | < 10 | < 10 | > 2000 |  |  |  | r
20 | Clc1ccc(OCCCSC(Cn2ccnc2)c2ccc(Cl)cc2Cl)cc1 (stereo not drawn) [Example 33, 1-{β-[3-(p-chlorophenoxy)-propylthio-2,4-dichlorophenethyl]}-imidazole] | 25 (≈ 56.6 µM) | 10 (≈ 22.6 µM) |  | < 10 | < 10 | > 1000 |  |  |  | 
21 | Clc1ccc(SCCCSC(Cn2ccnc2)c2ccc(Cl)cc2Cl)cc1 (stereo not drawn) [Example 34, 1-{β-[3-(p-chlorophenylthiopropylthio)]-2,4-dichlorophenethyl}-imidazole nitrate] |  |  |  | 10 | < 10 | > 3000 | r |  |  | r
22 | Clc1ccc(OCCCCOC(Cn2ccnc2)c2ccc(Cl)cc2Cl)cc1.O=[N+]([O-])O (stereo not drawn) [Example 35, 1-{β-[4-(p-chlorophenoxy)-butoxy]-2,4-dichlorophenethyl}-imidazole nitrate] | < 10 |  |  | 10 | < 10 |  |  |  | > 4000 | r
23 | Clc1ccc(SCCCCOC(Cn2ccnc2)c2ccc(Cl)cc2Cl)cc1 (stereo not drawn) [Example 36, 1-{β-[4-(p-chlorophenylthio)-butoxy]-2,4-dichlorophenethyl}-imidazolenitrate] | 35 (≈ 76.8 µM) |  |  | < 10 | < 10 | > 3000 |  |  |  | r
